In PubChem BioAssay AID248 (DTP/NCI, 2004):
Values joined by “and” are separate entries in the source; they are usually repeats but may differ in a detail not shown here. Equal values may be shown once. Inconclusive results and toxic doses are left out. Peptide text beside a SMILES is read from it. * marks the point of attachment. Cbz = O=C(OCc1ccccc1)*

Test system: L1210 leukemia ip in BDF1 mice, survival T/C
Test: NCI In Vivo Anticancer Drug Screen. Data for tumor model L1210 Leukemia (intraperitoneal) in B6D2F1 (BDF1) mice
Details: endpoint: mean survival time, higher = longer survival
In short: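 Read-out is survival time, reported as the treated-group measurement over the vehicle-control measurement.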

[1] = dose: 50.0 mg/kg/injection, schedule: Q01DX001 (ip), vehicle: saline
[2] = dose: 100.0 mg/kg/injection, schedule: Q01DX001 (ip), vehicle: saline
[3] = dose: 200.0 mg/kg/injection, schedule: Q01DX001 (ip), vehicle: saline
[4] = dose: 400.0 mg/kg/injection, schedule: Q01DX001 (ip), vehicle: saline
[5] = dose: 100.0 mg/kg/injection, schedule: Q04DX003 (ip), vehicle: Klucel (hydroxypropylcellulose) (HPC)
[6] = dose: 200.0 mg/kg/injection, schedule: Q04DX003 (ip), vehicle: Klucel (hydroxypropylcellulose) (HPC)
[7] = dose: 400.0 mg/kg/injection, schedule: Q04DX003 (ip), vehicle: Klucel (hydroxypropylcellulose) (HPC)
[8] = dose: 100.0 mg/kg/injection, schedule: Q04DX002 (ip), vehicle: Klucel (hydroxypropylcellulose) (HPC)
[9] = dose: 200.0 mg/kg/injection, schedule: Q04DX002 (ip), vehicle: Klucel (hydroxypropylcellulose) (HPC)
[10] = dose: 400.0 mg/kg/injection, schedule: Q04DX002 (ip), vehicle: Klucel (hydroxypropylcellulose) (HPC)
[11] = dose: 100.0 mg/kg/injection, schedule: Q01DX009 (ip), vehicle: saline with Tween-80
[12] = dose: 100.0 mg/kg/injection, schedule: Q04DX003 (ip), vehicle: saline with Tween-80
[13] = dose: 200.0 mg/kg/injection, schedule: Q01DX009 (ip), vehicle: saline with Tween-80
[14] = dose: 200.0 mg/kg/injection, schedule: Q04DX003 (ip), vehicle: saline with Tween-80
[15] = dose: 400.0 mg/kg/injection, schedule: Q01DX009 (ip), vehicle: saline with Tween-80
[16] = dose: 400.0 mg/kg/injection, schedule: Q04DX003 (ip), vehicle: saline with Tween-80
[17] = dose: 100.0 mg/kg/injection, schedule: Q01DX009 (ip), vehicle: Klucel (hydroxypropylcellulose) (HPC)
[18] = dose: 200.0 mg/kg/injection, schedule: Q01DX009 (ip), vehicle: Klucel (hydroxypropylcellulose) (HPC)
[19] = dose: 400.0 mg/kg/injection, schedule: Q01DX009 (ip), vehicle: Klucel (hydroxypropylcellulose) (HPC)
[20] = dose: 50.0 mg/kg/injection, schedule: Q01DX009 (ip), vehicle: Klucel (hydroxypropylcellulose) (HPC)
[21] = dose: 100.0 mg/kg/injection, schedule: Q04DX002 (ip), vehicle: saline with Tween-80
[22] = dose: 200.0 mg/kg/injection, schedule: Q04DX002 (ip), vehicle: saline with Tween-80
[23] = dose: 400.0 mg/kg/injection, schedule: Q04DX002 (ip), vehicle: saline with Tween-80

## CCOSc1ccc([N+](=O)[O-])cc1[N+](=O)[O-]
[1]
  T/C: 90 % of control
[2]
  T/C: 93 % of control
[3]
  T/C: 90 % of control
[4]
  T/C: 95 % of control

## CC1=CC(C)(C)NC(=S)N1c1ccc(C)cc1
[5]
  T/C: 104 % of control
[6]
  T/C: 93 % of control
[7]
  T/C: 91 % of control

## O=[N+]([O-])c1ccc(-n2nccn2)cc1
dose: 75.0 mg/kg/injection, schedule: Q01DX001 (ip), vehicle: other
  T/C: 100 % of control
dose: 150.0 mg/kg/injection, schedule: Q01DX001 (ip), vehicle: other
  T/C: 107 % of control

## COC1CCC(/C=C(\C#N)C2CCC(OC)CC2)CC1 (configuration not stated)
[8]
  T/C: 96 % of control
[9]
  T/C: 92 % of control
[10]
  T/C: 96 % of control

## Cc1ccc(S(=O)(=O)OC2CS(=O)(=O)C2)cc1
[11]
  T/C: 100 % of control
[12]
  T/C: 105 % of control
[13]
  T/C: 95 % of control
[14]
  T/C: 100 % of control
[15]
  T/C: 105 % of control
[16]
  T/C: 97 % of control

## CCN(CC)CCNc1ccc([N+](=O)[O-])c2sc3ccccc3c(=O)c12
dose: 17.7 mg/kg/injection, schedule: Q01DX Z (ip), vehicle: carboxymethylcellulose (CMC)
  T/C: 121 % of control
dose: 37.0 mg/kg/injection, schedule: Q01DX Z (ip), vehicle: methylcellulose (MC)
  T/C: 223 % of control
dose: 40.0 mg/kg/injection, schedule: Q01DX Z (ip), vehicle: carboxymethylcellulose (CMC)
  T/C: 152 % of control
dose: 56.0 mg/kg/injection, schedule: Q01DX Z (ip), vehicle: methylcellulose (MC)
  T/C: 201 % of control
dose: 60.0 mg/kg/injection, schedule: Q01DX Z (ip), vehicle: carboxymethylcellulose (CMC)
  T/C: 156 % of control
dose: 90.0 mg/kg/injection, schedule: Q01DX Z (ip), vehicle: carboxymethylcellulose (CMC)
  T/C: 181 % of control
dose: 126.0 mg/kg/injection, schedule: Q01DX Z (ip), vehicle: methylcellulose (MC)
  T/C: 115 % of control

## Nc1ccc(N=Nc2ccccc2)cc1[N+](=O)[O-]
[12]
  T/C: 98 % of control
[14]
  T/C: 96 % of control
[16]
  T/C: 94 % of control

## CC(=O)NCc1cccc([N+](=O)[O-])c1
dose: 25.0 mg/kg/injection, schedule: Q01DX005 (ip), vehicle: saline
  T/C: 111 % of control
dose: 100.0 mg/kg/injection, schedule: Q01DX005 (ip), vehicle: saline
  T/C: 102 % of control

## N#CCCCOc1ccc(Cl)cc1
dose: 25.0 mg/kg/injection, schedule: Q04DX003 (ip), vehicle: Klucel (hydroxypropylcellulose) (HPC)
  T/C: 104 % of control
dose: 50.0 mg/kg/injection, schedule: Q04DX003 (ip), vehicle: Klucel (hydroxypropylcellulose) (HPC)
  T/C: 104 % of control
[5]
  T/C: 98 % of control

## O=C(c1ccccc1)C1C2C=CC(C2)C1C(=O)c1ccccc1 (configuration not stated)
[17]
  T/C: 94 % of control
[5]
  T/C: 108 % of control
[18]
  T/C: 107 % of control
[6]
  T/C: 97 % of control
[19]
  T/C: 93 % of control
[7]
  T/C: 100 % of control

## CC(=O)Nc1cccc([N+](=O)[O-])c1
dose: 50.0 mg/kg/injection, schedule: Q01DX009 (ip), vehicle: saline with Tween-80
  T/C: 100 % of control
[2]
  T/C: 108 % of control
[11]
  T/C: 90 % of control
[3]
  T/C: 102 % of control
[13]
  T/C: 103 % of control
[4]
  T/C: 108 % of control

## CCOc1ccccc1NC(=S)NC(=O)c1ccc(OC)cc1
[17]
  T/C: 104 % of control
[5]
  T/C: 109 % of control
[18]
  T/C: 93 % of control
[6]
  T/C: 102 % of control
[19]
  T/C: 93 % of control
[7]
  T/C: 100 % of control

## CCOC(=O)CNC(=O)C(CC(C)C)NC(=O)C1CCCN1C(=O)OCc1ccccc1 (stereo not drawn) (Cbz-Pro-Leu-Gly-OEt; configuration not given here)
[17]
  T/C: 105 % of control
[5]
  T/C: 107 % of control
[18]
  T/C: 89 % of control
[6]
  T/C: 93 % of control
[19]
  T/C: 110 % of control
[7]
  T/C: 98 % of control

## NC12CCCCC1(O)CCCC2 (configuration not stated)
dose: 75.0 mg/kg/injection, schedule: Q01DX001 (ip), vehicle: saline
  T/C: 101 % of control
dose: 150.0 mg/kg/injection, schedule: Q01DX001 (ip), vehicle: saline
  T/C: 101 % of control
dose: 300.0 mg/kg/injection, schedule: Q01DX001 (ip), vehicle: saline
  T/C: 95 % of control

## O=C1OC(=O)c2ccc([N+](=O)[O-])c3c([N+](=O)[O-])ccc1c23
[11]
  T/C: 88 % of control
[13]
  T/C: 95 % of control
[15]
  T/C: 91 % of control

## CSc1nc(N)c(C(N)=O)cc1C#N
[12]
  T/C: 89 % of control
[14]
  T/C: 89 % of control
[16]
  T/C: 87 % of control

## Nc1nnnn1-c1ccc2ccccc2c1
[12]
  T/C: 101 % of control
[14]
  T/C: 97 % of control
[16]
  T/C: 101 % of control

## CCCC(=O)Nc1ccc(N=Nc2ccccc2)cc1
dose: 25.0 mg/kg/injection, schedule: Q01DX009 (ip), vehicle: Klucel (hydroxypropylcellulose) (HPC)
  T/C: 100 % of control
[20]
  T/C: 92 % of control
[17]
  T/C: 94 % of control and 96 % of control
[18]
  T/C: 95 % of control

## CC(C)(C)C(=O)[CH-]C(=O)C(C)(C)C.CC(C)(C)C(=O)[CH-]C(=O)C(C)(C)C.CC(C)(C)C(=O)[CH-]C(=O)C(C)(C)C.[Er+3]
dose: 50.0 mg/kg/injection, schedule: Q04DX002 (ip), vehicle: saline with Tween-80
  T/C: 90 % of control
[21]
  T/C: 90 % of control
[22]
  T/C: 90 % of control
[23]
  T/C: 90 % of control

## Cc1cc2[nH]c(=O)[nH]c2cc1C
[12]
  T/C: 98 % of control
[14]
  T/C: 88 % of control

## COc1cc([N+](=O)[O-])ccc1NC(=O)Nc1ccc(S(N)(=O)=O)cc1
dose: 100.0 mg/kg/injection, schedule: Q01DX001 (ip), vehicle: saline with Tween-80
  T/C: 98 % of control
[11]
  T/C: 103 % of control and 107 % of control
[21]
  T/C: 100 % of control and 102 % of control
dose: 200.0 mg/kg/injection, schedule: Q01DX001 (ip), vehicle: saline with Tween-80
  T/C: 90 % of control
[13]
  T/C: 92 % of control and 103 % of control
[22]
  T/C: 99 % of control and 86 % of control
dose: 400.0 mg/kg/injection, schedule: Q01DX001 (ip), vehicle: saline with Tween-80
  T/C: 91 % of control
[15]
  T/C: 94 % of control and 96 % of control
[23]
  T/C: 94 % of control

## CCOC(=O)N1C(=O)NC(=O)C1c1ccc(OC)cc1 (configuration not stated)
[1]
  T/C: 91 % of control
[2]
  T/C: 97 % of control
[3]
  T/C: 100 % of control
[4]
  T/C: 102 % of control

## CC(C)(O)C#Cc1ccccc1
[20]
  T/C: 99 % of control
dose: 100.0 mg/kg/injection, schedule: Q01DX005 (ip), vehicle: Klucel (hydroxypropylcellulose) (HPC)
  T/C: 105 % of control
[17]
  T/C: 99 % of control
[8]
  T/C: 95 % of control
dose: 200.0 mg/kg/injection, schedule: Q01DX005 (ip), vehicle: Klucel (hydroxypropylcellulose) (HPC)
  T/C: 97 % of control
[18]
  T/C: 92 % of control
[9]
  T/C: 113 % of control
[10]
  T/C: 102 % of control

## CC/C(=N/N(C)C)c1ccccc1
dose: 100.0 mg/kg/injection, schedule: Q04DX003 (ip), vehicle: saline
  T/C: 96 % of control
dose: 200.0 mg/kg/injection, schedule: Q04DX003 (ip), vehicle: saline
  T/C: 93 % of control
